# How the values were obtained:
# Assay in all cases: KINOMEscan competition binding
# Settings in all cases: compound 10.0 µM
# [1] = biological target: RIOK2 (human) (UniProt Q9BVS4)
# [2] = biological target: CSNK2A2 (human) (UniProt P19784)
# [3] = biological target: TYK2 JH2 pseudokinase (human) (UniProt P29597)
# [4] = biological target: STK17B (human) (UniProt O94768)
# [5] = biological target: RIPK1 (human) (UniProt Q13546)
# [6] = biological target: PIP5K1A (human) (UniProt Q99755)
# [7] = biological target: MST1R (human) (UniProt Q04912)
# [8] = biological target: MAK (human) (UniProt P20794)
# [9] = biological target: WEE2 (human) (UniProt P0C1S8)
# [10] = biological target: MAPK4 (human) (UniProt P31152)
# [11] = biological target: SRC (human) (UniProt P12931)
# [12] = biological target: HIPK3 (human) (UniProt Q9H422)
# [13] = biological target: RPS6KA2 KD1 (human) (UniProt Q15349)
# [14] = biological target: STK16 (human) (UniProt O75716)
# [15] = biological target: BRSK1 (human) (UniProt Q8TDC3)
# [16] = biological target: ROCK1 (human) (UniProt Q13464)
# [17] = biological target: MAP2K7 (human) (UniProt O14733)
# [18] = biological target: MATK (human) (UniProt P42679)
# [19] = biological target: MAP4K4 (human) (UniProt O95819)
# [20] = biological target: CAMK2G (human) (UniProt Q13555)
# [21] = biological target: GRK4 (human) (UniProt P32298)
# [22] = biological target: EIF2AK1 (human) (UniProt Q9BQI3)
# [23] = biological target: MAP2K6 (human) (UniProt P52564)
# [24] = biological target: EPHB6 (human) (UniProt O15197)
# [25] = biological target: MAP2K5 (human) (UniProt Q13163)
# [26] = biological target: AURKA (human) (UniProt O14965)
# [27] = biological target: CSNK2A1 (human) (UniProt P68400)
# [28] = biological target: CDC2L2 (human) (UniProt Q9UQ88)
# [29] = biological target: TGFBR2 (human) (UniProt P37173)
# [30] = biological target: CIT (human) (UniProt O14578)
# [31] = biological target: CLK2 (human) (UniProt P49760)
# [32] = biological target: JAK2 JH1 catalytic (human) (UniProt O60674)
# [33] = biological target: DDR2 (human) (UniProt Q16832)
# [34] = biological target: MAPK14 (human) (UniProt Q16539)
# [35] = biological target: MYLK2 (human) (UniProt Q9H1R3)
# [36] = biological target: BMPR1A (human) (UniProt P36894)
# [37] = biological target: DYRK1A (human) (UniProt Q13627)
# [38] = biological target: EPHA4 (human) (UniProt P54764)
# [39] = biological target: RPS6KA3 KD1 (human) (UniProt P51812)
# [40] = tested on: EGFR (human), P00533 [L858R]
# MAK (human), sequence (P20794 whole entry, looked up): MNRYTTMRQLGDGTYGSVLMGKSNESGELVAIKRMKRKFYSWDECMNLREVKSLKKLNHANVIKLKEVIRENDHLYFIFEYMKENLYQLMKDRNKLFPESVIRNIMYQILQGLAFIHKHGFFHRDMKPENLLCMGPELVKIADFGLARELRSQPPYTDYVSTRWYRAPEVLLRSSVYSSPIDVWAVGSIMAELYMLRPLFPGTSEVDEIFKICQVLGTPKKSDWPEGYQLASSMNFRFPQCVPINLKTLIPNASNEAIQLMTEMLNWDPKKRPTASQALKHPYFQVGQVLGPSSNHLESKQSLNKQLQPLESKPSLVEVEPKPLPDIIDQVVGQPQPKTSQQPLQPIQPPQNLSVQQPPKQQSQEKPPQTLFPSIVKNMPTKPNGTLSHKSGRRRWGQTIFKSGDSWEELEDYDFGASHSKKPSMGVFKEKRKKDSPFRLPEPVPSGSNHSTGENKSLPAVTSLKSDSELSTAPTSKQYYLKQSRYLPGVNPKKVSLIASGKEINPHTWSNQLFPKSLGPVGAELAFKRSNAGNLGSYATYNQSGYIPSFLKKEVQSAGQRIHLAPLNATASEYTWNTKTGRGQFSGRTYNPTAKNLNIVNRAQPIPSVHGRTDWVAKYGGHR
# EPHB6 (human), sequence (O15197 whole entry, looked up): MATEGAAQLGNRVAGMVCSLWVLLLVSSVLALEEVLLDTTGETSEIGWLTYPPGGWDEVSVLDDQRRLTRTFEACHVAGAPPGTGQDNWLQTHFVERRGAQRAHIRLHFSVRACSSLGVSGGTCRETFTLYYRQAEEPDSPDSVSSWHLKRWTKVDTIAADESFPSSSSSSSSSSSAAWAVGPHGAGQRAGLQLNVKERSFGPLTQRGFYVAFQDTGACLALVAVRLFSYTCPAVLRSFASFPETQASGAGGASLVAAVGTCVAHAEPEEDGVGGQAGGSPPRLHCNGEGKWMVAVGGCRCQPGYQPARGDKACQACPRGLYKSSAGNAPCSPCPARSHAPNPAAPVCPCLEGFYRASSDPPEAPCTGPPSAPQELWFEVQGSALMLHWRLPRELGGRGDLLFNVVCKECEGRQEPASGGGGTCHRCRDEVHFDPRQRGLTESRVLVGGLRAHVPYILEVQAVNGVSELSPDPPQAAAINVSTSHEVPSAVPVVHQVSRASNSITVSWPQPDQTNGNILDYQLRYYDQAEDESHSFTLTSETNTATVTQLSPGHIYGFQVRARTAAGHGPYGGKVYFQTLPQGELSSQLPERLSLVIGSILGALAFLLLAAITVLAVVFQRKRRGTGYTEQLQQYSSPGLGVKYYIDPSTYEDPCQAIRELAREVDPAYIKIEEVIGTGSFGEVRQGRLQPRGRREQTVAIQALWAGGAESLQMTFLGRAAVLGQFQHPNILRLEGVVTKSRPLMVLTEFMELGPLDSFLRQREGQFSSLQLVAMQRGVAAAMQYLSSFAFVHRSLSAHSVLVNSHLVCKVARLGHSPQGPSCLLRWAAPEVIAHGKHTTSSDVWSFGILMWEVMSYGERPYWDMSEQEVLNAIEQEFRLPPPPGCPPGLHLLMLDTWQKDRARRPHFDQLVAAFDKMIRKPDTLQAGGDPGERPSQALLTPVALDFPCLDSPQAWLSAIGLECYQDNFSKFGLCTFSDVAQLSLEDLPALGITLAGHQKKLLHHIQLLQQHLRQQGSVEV
# EPHA4 (human), sequence (P54764 whole entry, looked up): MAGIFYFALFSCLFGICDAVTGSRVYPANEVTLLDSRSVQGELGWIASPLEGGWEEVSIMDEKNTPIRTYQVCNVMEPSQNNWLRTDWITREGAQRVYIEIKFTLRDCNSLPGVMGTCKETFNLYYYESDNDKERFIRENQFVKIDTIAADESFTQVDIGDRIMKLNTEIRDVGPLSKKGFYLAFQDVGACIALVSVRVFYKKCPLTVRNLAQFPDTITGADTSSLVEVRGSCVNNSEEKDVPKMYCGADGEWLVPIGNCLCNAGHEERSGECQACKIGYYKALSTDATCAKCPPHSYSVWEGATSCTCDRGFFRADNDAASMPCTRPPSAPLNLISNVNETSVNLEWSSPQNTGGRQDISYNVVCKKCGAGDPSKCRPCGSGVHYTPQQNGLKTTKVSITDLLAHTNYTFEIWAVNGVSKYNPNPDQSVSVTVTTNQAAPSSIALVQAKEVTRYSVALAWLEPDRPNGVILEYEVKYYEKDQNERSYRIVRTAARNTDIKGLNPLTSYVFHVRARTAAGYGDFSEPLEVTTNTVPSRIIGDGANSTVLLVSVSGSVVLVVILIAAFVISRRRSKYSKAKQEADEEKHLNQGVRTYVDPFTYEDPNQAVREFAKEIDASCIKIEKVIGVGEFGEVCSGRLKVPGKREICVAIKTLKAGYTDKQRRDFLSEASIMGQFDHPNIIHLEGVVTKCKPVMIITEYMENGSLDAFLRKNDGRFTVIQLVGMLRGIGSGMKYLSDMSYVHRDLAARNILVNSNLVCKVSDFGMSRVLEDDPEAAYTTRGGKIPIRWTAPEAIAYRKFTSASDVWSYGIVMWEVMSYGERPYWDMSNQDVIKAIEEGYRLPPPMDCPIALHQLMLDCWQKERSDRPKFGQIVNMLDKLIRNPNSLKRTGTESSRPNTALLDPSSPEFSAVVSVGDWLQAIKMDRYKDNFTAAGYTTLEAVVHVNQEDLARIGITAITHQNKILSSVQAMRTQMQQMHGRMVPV
# AURKA (human), sequence (O14965 whole entry, looked up): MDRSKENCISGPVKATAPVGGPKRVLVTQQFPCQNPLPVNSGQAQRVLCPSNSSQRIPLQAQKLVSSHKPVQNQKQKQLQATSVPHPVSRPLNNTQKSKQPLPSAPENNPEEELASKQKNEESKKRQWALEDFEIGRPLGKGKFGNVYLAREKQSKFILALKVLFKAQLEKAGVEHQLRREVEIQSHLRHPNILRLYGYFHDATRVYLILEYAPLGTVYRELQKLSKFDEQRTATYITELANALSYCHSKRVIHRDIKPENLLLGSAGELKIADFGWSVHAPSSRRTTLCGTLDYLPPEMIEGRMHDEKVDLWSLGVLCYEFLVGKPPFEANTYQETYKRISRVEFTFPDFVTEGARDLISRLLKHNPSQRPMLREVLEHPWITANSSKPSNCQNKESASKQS
# DDR2 (human), sequence (Q16832 whole entry, looked up): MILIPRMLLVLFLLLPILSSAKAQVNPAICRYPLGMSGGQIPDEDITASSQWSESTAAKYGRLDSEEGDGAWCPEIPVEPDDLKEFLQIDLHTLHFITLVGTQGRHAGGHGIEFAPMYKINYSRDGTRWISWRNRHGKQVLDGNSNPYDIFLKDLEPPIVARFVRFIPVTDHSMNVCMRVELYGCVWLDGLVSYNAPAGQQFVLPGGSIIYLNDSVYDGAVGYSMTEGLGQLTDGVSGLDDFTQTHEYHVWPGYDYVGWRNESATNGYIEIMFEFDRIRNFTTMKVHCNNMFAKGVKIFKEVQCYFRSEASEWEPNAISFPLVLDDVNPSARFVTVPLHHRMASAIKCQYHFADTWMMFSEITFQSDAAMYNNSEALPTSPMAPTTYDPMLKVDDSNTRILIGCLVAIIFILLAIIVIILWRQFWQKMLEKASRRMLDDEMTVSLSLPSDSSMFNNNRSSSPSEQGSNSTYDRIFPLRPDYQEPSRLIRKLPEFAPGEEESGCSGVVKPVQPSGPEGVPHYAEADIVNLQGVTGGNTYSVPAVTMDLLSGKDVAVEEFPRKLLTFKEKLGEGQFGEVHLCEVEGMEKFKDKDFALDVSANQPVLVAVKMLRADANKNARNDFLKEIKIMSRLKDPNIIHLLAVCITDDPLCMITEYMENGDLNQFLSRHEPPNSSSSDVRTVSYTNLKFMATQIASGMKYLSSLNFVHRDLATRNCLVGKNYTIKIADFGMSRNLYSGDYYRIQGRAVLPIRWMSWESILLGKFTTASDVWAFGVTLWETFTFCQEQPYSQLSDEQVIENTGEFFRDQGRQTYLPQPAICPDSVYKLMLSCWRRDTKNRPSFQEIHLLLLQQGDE
# STK16 (human), sequence (O75716 whole entry, looked up): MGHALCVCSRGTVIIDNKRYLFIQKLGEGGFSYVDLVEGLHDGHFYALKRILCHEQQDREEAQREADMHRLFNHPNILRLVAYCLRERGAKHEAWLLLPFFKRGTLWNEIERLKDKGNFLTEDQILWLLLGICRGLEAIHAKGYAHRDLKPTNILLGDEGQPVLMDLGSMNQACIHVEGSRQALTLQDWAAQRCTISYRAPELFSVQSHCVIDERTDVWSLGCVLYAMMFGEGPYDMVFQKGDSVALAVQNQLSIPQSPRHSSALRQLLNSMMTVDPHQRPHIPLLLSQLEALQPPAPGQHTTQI
# MAPK4 (human), sequence (P31152 whole entry, looked up): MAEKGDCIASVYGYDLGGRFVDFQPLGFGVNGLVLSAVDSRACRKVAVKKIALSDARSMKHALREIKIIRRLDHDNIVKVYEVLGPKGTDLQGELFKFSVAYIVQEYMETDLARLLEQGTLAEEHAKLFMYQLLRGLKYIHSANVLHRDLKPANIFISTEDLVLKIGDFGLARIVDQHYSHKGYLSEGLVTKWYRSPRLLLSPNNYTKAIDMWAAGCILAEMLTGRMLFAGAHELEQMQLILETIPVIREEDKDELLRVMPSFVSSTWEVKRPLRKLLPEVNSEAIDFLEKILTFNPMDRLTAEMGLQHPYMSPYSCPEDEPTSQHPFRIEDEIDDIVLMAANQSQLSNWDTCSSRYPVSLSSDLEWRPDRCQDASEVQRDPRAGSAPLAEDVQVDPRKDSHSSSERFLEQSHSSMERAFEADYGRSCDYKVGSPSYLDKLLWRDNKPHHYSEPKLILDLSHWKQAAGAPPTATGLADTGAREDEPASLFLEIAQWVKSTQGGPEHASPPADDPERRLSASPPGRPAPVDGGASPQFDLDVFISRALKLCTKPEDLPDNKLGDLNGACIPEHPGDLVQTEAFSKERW
smiles,measurement,setting,value
CCN1CCN(Cc2ccc(NC(=O)c3ccc(C)c(/C=C/c4cnc5[nH]ccc5c4OC)c3)cc2C(F)(F)F)CC1,"kinase still bound, per cent of control",[1],19%
same,"kinase still bound, per cent of control",[2],95%
same,"kinase still bound, per cent of control",[3],100%
same,"kinase still bound, per cent of control",[4],1%
same,"kinase still bound, per cent of control",[5],0.15%
same,"kinase still bound, per cent of control",[6],2.6%
same,"kinase still bound, per cent of control",[7],100%
same,"kinase still bound, per cent of control",[8],100%
same,"kinase still bound, per cent of control",[9],4.8%
same,"kinase still bound, per cent of control",[10],100%
same,"kinase still bound, per cent of control",[11],0.15%
same,"kinase still bound, per cent of control",[12],44%
same,"kinase still bound, per cent of control",[13],2.7%
same,"kinase still bound, per cent of control",[14],54%
same,"kinase still bound, per cent of control",[15],100%
same,"kinase still bound, per cent of control",[16],43%
same,"kinase still bound, per cent of control",[17],1.4%
same,"kinase still bound, per cent of control",[18],100%
same,"kinase still bound, per cent of control",[19],4.2%
same,"kinase still bound, per cent of control",[20],100%
same,"kinase still bound, per cent of control",[21],8.2%
same,"kinase still bound, per cent of control",[22],78%
same,"kinase still bound, per cent of control",[23],79%
same,"kinase still bound, per cent of control",[24],1.8%
same,"kinase still bound, per cent of control",[25],0.2%
same,"kinase still bound, per cent of control",[26],97%
same,"kinase still bound, per cent of control",[27],90%
same,"kinase still bound, per cent of control",[28],5.4%
same,"kinase still bound, per cent of control",[29],5.7%
same,"kinase still bound, per cent of control",[30],0%
same,"kinase still bound, per cent of control",[31],71%
same,"kinase still bound, per cent of control",[32],12%
same,"kinase still bound, per cent of control",[33],9%
same,"kinase still bound, per cent of control",[34],0%
same,"kinase still bound, per cent of control",[35],0.55%
same,"kinase still bound, per cent of control",[36],76%
same,"kinase still bound, per cent of control",[37],63%
same,"kinase still bound, per cent of control",[38],0%
same,"kinase still bound, per cent of control",[39],14%
same,"kinase still bound, per cent of control",[40],0.1%
CNC(=O)Nc1ccc(-c2nc(N3CC4CCC(C3)O4)c3cnn(C4CCC5(CC4)OCCO5)c3n2)cc1,"kinase still bound, per cent of control",[1],90%
same,"kinase still bound, per cent of control",[2],100%
same,"kinase still bound, per cent of control",[3],100%
same,"kinase still bound, per cent of control",[4],100%
same,"kinase still bound, per cent of control",[5],83%
same,"kinase still bound, per cent of control",[6],84%
same,"kinase still bound, per cent of control",[7],100%
same,"kinase still bound, per cent of control",[8],100%
same,"kinase still bound, per cent of control",[9],100%
same,"kinase still bound, per cent of control",[10],100%
same,"kinase still bound, per cent of control",[11],75%
same,"kinase still bound, per cent of control",[12],42%
same,"kinase still bound, per cent of control",[13],100%
same,"kinase still bound, per cent of control",[14],98%
same,"kinase still bound, per cent of control",[15],100%
same,"kinase still bound, per cent of control",[16],100%
same,"kinase still bound, per cent of control",[17],100%
same,"kinase still bound, per cent of control",[18],100%
same,"kinase still bound, per cent of control",[19],85%
same,"kinase still bound, per cent of control",[20],100%
same,"kinase still bound, per cent of control",[21],100%
same,"kinase still bound, per cent of control",[22],100%
same,"kinase still bound, per cent of control",[23],95%
same,"kinase still bound, per cent of control",[24],83%
same,"kinase still bound, per cent of control",[25],93%
same,"kinase still bound, per cent of control",[26],100%
same,"kinase still bound, per cent of control",[27],80%
same,"kinase still bound, per cent of control",[28],97%
same,"kinase still bound, per cent of control",[29],100%
same,"kinase still bound, per cent of control",[30],100%
same,"kinase still bound, per cent of control",[31],98%
same,"kinase still bound, per cent of control",[32],100%
same,"kinase still bound, per cent of control",[33],100%
same,"kinase still bound, per cent of control",[34],100%
same,"kinase still bound, per cent of control",[35],100%
same,"kinase still bound, per cent of control",[36],93%
same,"kinase still bound, per cent of control",[37],100%
same,"kinase still bound, per cent of control",[38],100%
same,"kinase still bound, per cent of control",[39],100%
same,"kinase still bound, per cent of control",[40],53%
